Test results as given in patent US20250092345A1, “INTER ORGAN PLATFORM FOR MICROPHYSIOLOGICAL SYSTEM ON A CHIP” (THE TRUSTEES OF COLUMBIA UNIVERSITY IN THE CITY OF NEW YORK, priority 2020, published 2025).

Columns and labels:
cardiac muscle = test: Cardiac beat frequency after drug injection into the reservoir of the InterOrgan platform; type: cell-based, human; details: 10 μM into reservoir at t=0; assessed at 24 and 72 hours
miRNAs in heart tissues = type: cell-based, human
Description: We used the GeneChip™ miRNA 4.0 Array (ThermoFisher) to measure differential expression of miRNAs in heart tissues following Dox treatment.
Differential expressions of all other miRNAs were highly significant in the InterOrgan platform, based on Normalized Enrichment Scores (NES), showing activity consistent with published clinical results for 20 out of the 22 miRNAs (FIGS. 14A-14F).
miRNA was isolated using miRNeasy Mini Kit from (Qiagen, 217004). Samples were shipped on dry ice to Advanced BioMedical Laboratories and assayed using the miRNA 4.0 Genechip Array (ThermoFisher). Results were analyzed using the TAC 4.0 software (ThermoFisher). Additional Ingenuity Pathway Analysis was performed using the methodology described above.
To assess the activity of miRNAs, gene set enrichment analysis (GSEA) was performed of their targets, as determined by MultiMiR (release 3.11) and RBio-mirGS (update 0.2.12) biocoductor packages (in R) for genes that were differentially expressed after Dox treatment. Since miRNAs generally repress their targets, the sign of the normalized enrichment score was reversed to correctly report their change in activity. For instance, a positive target enrichment for miR-1273a's targets was reported as a negative NES (NES=−21.31) because it is consistent with its downregulation. […]

engineered skin tissues = test: Doxorubicin-induced toxicity: skin functional assays; type: cell-based, human; details: 30 μM Dox, both Isolated and InterOrgan cultures
Experimental: Skin functional assays: For drug-induced toxicity studies, electrical current was run through the tissues by placing electrodes on either side of the skin tissue and the change in resistance was subsequently measured and read as a function of the barrier. All tissues were analyzed using the same electrode holder setup to standardize the positions of electrodes with respect to the tissue. To analyze the transport of molecules through the skin barrier, Fluorescein (FITC, ThermoFisher, D3306) powder was added to the epidermis of skin tissues. After 3 hrs, 100 μl of supernatant from the dermal region below the skin tissue was sampled and assayed on a plate reader (BioTex SynergyHTX).

[1] = test system: human engineered cardiac tissue; test: Validation of engineered cardiac tissue by drugs with known cardiac effects (beat frequency); type: cell-based; details: doxorubicin 1 μM over 72 hours
Experimental: The cardiac tissue model was generated from iPS-derived cardiomyocytes and fibroblasts encapsulated in fibrin hydrogel, as in our previous studies. The tissue was formed between two elastic pillars causing cell elongation and alignment, and subjected to electrical stimulation to synchronously contract and work against the pillars.
Specifically, linsitinib was dissolved at a 10 mM concentration in DMSO (Corning) and mixed in with the respective cell medium at a […] concentration unless otherwise noted. Vehicle treatments involved just the addition of DMSO at identical volumes as a control. Tissues were randomly assigned to experimental groups. Medium was changed every day.
To measure the cardiac contractility online, we took contractility videos of the tissues that were analyzed using the native MATLAB code we previously developed. Tissue contractility was measured by tracking the change in tissue area as a function of time. […] Absolute differences in cell area from the baseline frame were then calculated to create a time course of cell area changes over time. The resulting time courses were analyzed using a native MATLAB (MATHWorks) automated peak finding algorithm to determine locations of maximum cell contractions in the time profiles. […] The rate of proarrhythmic events was calculated by the ratio of the number of proarrhythmic events over the total number of beats.

[2] = test system: all tissues in the InterOrgan platform (heart, liver, bone, skin); test: Doxorubicin-induced toxicity: cell viability, glucose consumption, mitochondrial activity of engineered tissues; type: cell-based, human; details: 30 μM Dox, 72 hours
Experimental: Metabolic Assays: Glucose, lactate, glutamate and glutamine were measured in parallel using the bioluminescent Glucose-Glo™ (Promega, cat. no. J6021), Lactate-Glo™ (Promega, cat. No. J5021), Glutamine/Glutamate-Glo™ (Promega, cat. no. J8021) and Glutamate-Glo™ (Promega, cat. no. J7021) assays according to the manufacturer's protocols.

[3] = FITC absorption and diffusive transport in the integrated platform; type: physicochemical
Experimental: Fluorescein isothiocyanate (FITC, 10 mM in DMSO; Sigma Aldrich) was circulated for the integrated platform to determine potential hydrophobic small molecule absorption, given its physical and chemical properties. FITC was added at a concentration of 10 µM to 8 mL of 1:1 bone tumor/cardiac mixed media and introduced into the platform. The control was the FITC-containing media in a standard 24-multiwell plate (Corning). Aliquots from the reservoir, bone tumor, and cardiac tissue chambers were taken at 12, 24, 48 and 72 hours and measured for fluorescent signal using a spectrophotometer (Biotek).
Measurements of FITC concentrations were used to estimate the spread of linsitinib within the platform via diffusive circulating transport. Four independent platforms were filled with 8 mL of 1:1 mixed media each, after which 10 µM of FITC was injected into the reservoir. The platforms were connected to the peristaltic pumps run at 100 rpm to generate physiologically relevant fluid flow rate and shear stress. Aliquots were taken from the reservoir, bone and cardiac chambers at 0, 2, 4, 6, and 12 hours post injection, and assayed for fluorescence signal on a spectrophotometer (Biotek).

endothelial barrier = test: Endothelial barrier permeability under flow shear (ECs and supporting MSCs on mesh inserts); type: cell-based, human

CN(CCOc1ccc(NS(C)(=O)=O)cc1)CCc1ccc(NS(C)(=O)=O)cc1 [dofetilide]
beat rate of cardiac muscle (cardiac muscle): decreased

COc1cccc2c1C(=O)c1c(O)c3c(c(O)c1C2=O)C[C@@](O)(C(=O)CO)C[C@@H]3O[C@H]1C[C@H](N)[C@H](O)[C@H](C)O1 [doxorubicin]
miR-1273a fold change (FC) (miRNAs in heart tissues): −30.6 | diffusional permeability of skin (engineered skin tissues): increased | electrical resistance of skin (engineered skin tissues): decreased | beat frequency [1]: initially increased, and then decreased following prolonged exposure | cell viability [2]: significantly decreased | glucose consumption [2]: significantly decreased | mitochondrial activity [2]: significantly decreased

CNC[C@H](O)c1ccc(O)c(O)c1 [epinephrine]
beat rate of cardiac muscle (cardiac muscle): increased the beat rate in a time-dependent manner

Fluorescein isothiocyanate [FITC]
absorption by the platform ([3]; 10 μM circulated for 72 hours, compared to multi-well plates): without any measurable absorption | time to equilibrium across both models ([3]; 10 μM injected into reservoir): approximately 6 hours | time to uniform concentration in all areas of the platform ([3]; 10 μM injected into reservoir): ≤ 12 h

thrombin
barrier permeability in response to thrombin (endothelial barrier): physiologic increase in barrier permeability
